Results taken from PubChem BioAssay (NCI).
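How tested: cells in 96-well plates exposed to compound for 48 hours at five concentrations. GI50 is the concentration that inhibits growth by half. TGI marks complete inhibition of growth.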

Experiments:
Assay in all cases: growth of human tumour cells (NCI), 48 h
IGROV1 ovarian = test system: IGROV1 ovarian
PC-3 prostate = test system: PC-3 prostate
KM12 colon = test system: KM12 colon
SNB-75 CNS = test system: SNB-75 CNS
OVCAR-4 ovarian = test system: OVCAR-4 ovarian
OVCAR-8 ovarian = test system: OVCAR-8 ovarian
COLO 205 colon = test system: COLO 205 colon
LOX IMVI melanoma = test system: LOX IMVI melanoma
SK-OV-3 ovarian = test system: SK-OV-3 ovarian
UO-31 renal = test system: UO-31 renal

Row | Structure (SMILES) | GI50 (IGROV1 ovarian) | TGI (IGROV1 ovarian) | GI50 (PC-3 prostate) | TGI (PC-3 prostate) | GI50 (KM12 colon) | TGI (KM12 colon) | GI50 (SNB-75 CNS) | TGI (SNB-75 CNS) | GI50 (OVCAR-4 ovarian) | TGI (OVCAR-4 ovarian) | GI50 (OVCAR-8 ovarian) | TGI (OVCAR-8 ovarian) | GI50 (COLO 205 colon) | TGI (COLO 205 colon) | GI50 (LOX IMVI melanoma) | TGI (LOX IMVI melanoma) | GI50 (SK-OV-3 ovarian) | TGI (SK-OV-3 ovarian) | GI50 (UO-31 renal) | TGI (UO-31 renal)
1 | CN1CCN(c2ccc(NC(=O)c3cncnc3Nc3ccc4c(ccn4Cc4cccc(F)c4)c3)cc2)CC1 | 2.29 µM | 6.92 µM | 2.06 µM | 6.74 µM | 2.33 µM | 6.76 µM | 4.27 µM | 8.51 µM | 3.97 µM | 8.66 µM | 3.8 µM | 10.6 µM | 0.905 µM | 2.64 µM | 0.591 µM | 1.16 µM | 5.09 µM | 9.78 µM | 3.8 µM | 7.83 µM
2 | COc1ccc(OC)c(-c2nc3sc(C)cn3c2/C=C2\C(=O)N(C)c3ccccc32)c1 | 22 µM | 66.5 µM | 20.9 µM | > 100 µM | 21.9 µM | 68.5 µM | 17.9 µM | 47.9 µM | 34.1 µM | > 100 µM | 28.3 µM | > 100 µM | 25.8 µM | 68 µM | 17.3 µM | 37.9 µM | 28.4 µM | 71.4 µM | 21.1 µM | 59.7 µM
3 | COc1ccc2c3c1OC1C4(CCC5C(C2)N(CC2CC2)CCC351)OCCO4 (stereo unspecified) | – | > 100 µM | – | > 100 µM | – | > 100 µM | – | > 100 µM | – | > 100 µM | – | > 100 µM | – | > 100 µM | – | > 100 µM | – | > 100 µM | – | > 100 µM
4 | COc1ccc(-c2cncn2-c2ccc(-c3nc4cc(OC)c(OC)c(OC)c4s3)cc2)cc1N | 4.9 µM | > 100 µM | 2.59 µM | > 100 µM | 3.8 µM | > 100 µM | 52.3 µM | > 100 µM | 6.29 µM | > 100 µM | 6.19 µM | > 100 µM | 2.94 µM | 20.6 µM | 4.75 µM | > 100 µM | > 100 µM | > 100 µM | 1.99 µM | 7.57 µM
5 | COc1ncc(-c2ccc3ncnc(Nc4cccc(Cl)c4)c3c2)cc1NS(C)(=O)=O | 0.189 µM | 0.815 µM | 2.02 µM | 16.6 µM | 3.55 µM | 16.1 µM | 0.158 µM | 5.82 µM | 4.97 µM | 64.3 µM | 3.75 µM | > 100 µM | 1.75 µM | 7.36 µM | 1.68 µM | 11.1 µM | 0.813 µM | 4.16 µM | 0.354 µM | 8.96 µM
6 | NC(=O)/C=C/c1c[nH]c2nccnc12 | – | > 28.8 µM | – | 26.1 µM | – | > 46.3 µM | – | 4.46 µM | – | 65.4 µM | – | > 87.5 µM | – | 3.27 µM | – | 4.63 µM | – | > 100 µM | – | 0.609 µM
7 | O=C(O)c1ccccc1C(=O)Nc1cc2c(cc1Br)-c1ccccc1C2=O | – | > 100 µM | – | > 100 µM | – | > 100 µM | – | > 100 µM | – | > 100 µM | – | > 100 µM | – | > 100 µM | – | > 100 µM | – | > 100 µM | – | > 100 µM
8 | Clc1ccc2c(NCCNc3nc(N4CCCCC4)nc4ccccc34)ccnc2c1 | 2.54 µM | 9.86 µM | 3.17 µM | 14.4 µM | 3.39 µM | 12.7 µM | 1.78 µM | 7.46 µM | 2.81 µM | 13.8 µM | 2.17 µM | 5.18 µM | 1.19 µM | 2.84 µM | 1.58 µM | 3.36 µM | 2.58 µM | 7.64 µM | 1.39 µM | 2.79 µM
9 | N#CC1=C(N)Oc2c(ccc3cccnc23)C1c1ccccc1 (stereo unspecified) | – | > 100 µM | 2.8 µM | > 100 µM | – | 17.1 µM | – | 3.5 µM | – | 98.9 µM | – | > 100 µM | – | 13.2 µM | – | > 100 µM | – | > 100 µM | – | > 100 µM
10 | Cn1c(=O)c2[nH]c(CCS)nc2n(C)c1=O | – | > 100 µM | – | > 100 µM | – | > 100 µM | – | 67.7 µM | – | > 100 µM | – | > 100 µM | – | > 100 µM | – | > 100 µM | – | > 100 µM | – | > 100 µM
11 | COc1ccccc1CNC(=O)/C=C/c1ccc(O)c(O)c1 | 22.9 µM | > 100 µM | > 100 µM | > 100 µM | 59.4 µM | > 100 µM | 86.5 µM | > 100 µM | 40 µM | > 100 µM | 75.7 µM | > 100 µM | 24.4 µM | > 100 µM | 26.3 µM | > 100 µM | 38.2 µM | > 100 µM | 20.5 µM | > 100 µM
12 | Nc1ccccc1-n1c2c(c3ccccc3c1=O)C(=O)c1ccccc1-2 | – | > 100 µM | – | 97.4 µM | – | > 100 µM | – | > 100 µM | – | 82.7 µM | – | 45.4 µM | – | > 100 µM | – | > 100 µM | – | 21.5 µM | – | 33.9 µM
13 | COC(=O)C[C@@H]1CC=CC(=O)/C1=C(O)/C=C/c1ccccc1 | 0.216 µM | 0.52 µM | 0.856 µM | 3.76 µM | 0.233 µM | 0.705 µM | 1.05 µM | 3.21 µM | 1.54 µM | 2.96 µM | 0.602 µM | 3.76 µM | 0.401 µM | 1.46 µM | 0.172 µM | 0.332 µM | 1.7 µM | 3.88 µM | 0.303 µM | 0.826 µM
14 | Cc1cc(O)cc(-c2nn(C)cc2-c2cc(N3CCOCC3)nc(-c3cccnc3)n2)c1 | 4.27 µM | 72.6 µM | 2.44 µM | 17.2 µM | 3.23 µM | 20.7 µM | 1.48 µM | 4.49 µM | 7.74 µM | > 100 µM | 7.11 µM | > 100 µM | 2.9 µM | 9.57 µM | 4.16 µM | 27.3 µM | 6.83 µM | 43.7 µM | 3.44 µM | 43.3 µM
15 | CCOC(=O)CC1C(CNC(=O)NC)OC(n2cnc3c(NC(=O)Nc4ccccc4)ncnc32)C1O[Si](C)(C)C(C)(C)C (stereo unspecified) | 3.85 µM | 18 µM | 2.25 µM | 4.85 µM | 3.95 µM | 20.9 µM | 4.56 µM | > 100 µM | 12.3 µM | > 100 µM | 4.92 µM | 77.2 µM | 3.84 µM | > 100 µM | 5.46 µM | > 100 µM | 21 µM | > 100 µM | 12.1 µM | 29.5 µM
